According to patent US20080119477A1, “N-Biaryl and N-Arylheteroaryl Piperazine Derivatives as Modulators of the 5Ht2c Receptor Useful For the Treatment of Disorders Related Thereto” (priority 2004, published 2008):

Experiments:
[1] = system: amyloid precursor protein (APPs) secretion; settings: guinea pigs, repeat administration; cited from earlier work
[2] = target: T1, human 5HT2C receptor (Homo sapiens, UniProt P28335); experiment: Intracellular IP3 accumulation assay, 5HT2C; type: cell-based; settings: HEK293 cells transfected with human 5HT2C receptor cDNA; read-out: 5HT2C (EC50) IP Accumulation Assay
T1 construct: expressed in transfected cells; host or cells: HEK293
T1 sequence (P28335 33-458): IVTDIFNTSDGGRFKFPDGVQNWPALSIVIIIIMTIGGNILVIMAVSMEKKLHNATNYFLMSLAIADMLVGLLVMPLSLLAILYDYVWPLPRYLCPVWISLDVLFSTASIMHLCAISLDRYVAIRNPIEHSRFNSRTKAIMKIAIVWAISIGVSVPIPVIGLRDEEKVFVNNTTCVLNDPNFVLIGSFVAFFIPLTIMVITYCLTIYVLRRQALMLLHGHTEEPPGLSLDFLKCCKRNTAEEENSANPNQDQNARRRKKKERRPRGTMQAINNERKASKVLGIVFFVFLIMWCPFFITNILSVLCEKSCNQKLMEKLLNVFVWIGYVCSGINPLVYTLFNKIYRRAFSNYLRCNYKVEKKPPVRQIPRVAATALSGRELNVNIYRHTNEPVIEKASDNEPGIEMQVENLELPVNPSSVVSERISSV
Protocol: Intracellular IP3 Accumulation Assay:
HEK293 cells were transfected in 15 cm sterile dishes with or without (control) 16 ug of human 5HT2C receptor cDNA [for example see, Saltzman, A. G., et al. Biochem. Biophys. Res. Commun. 181, 1469-1478 (1991)] using 25 ul of lipofectamine. Cells were then incubated for 3-4 hours at 37° C./5% CO2 and then transfection media was removed and replaced with 100 ul of DMEM. Cells were then plated onto 100 cm sterile dishes. The next day cells were plated into 96 well PDL microtiter plates at a density of 55 K/0.2 mL. Six hours latter, media was exchanged with [^3H]inositol (0.25 uCi/well) in inositol free DMEM and plates were incubated at 37° C./5% CO2 overnight. The next day, wells were aspirated and 200 ul of DMEM containing test compound, 10 uM pargyline, and 10 mM LiCl was added to appropriate wells. Plates were then incubated at 37° C./5% CO2 for three hours followed aspiration and by addition of fresh ice cold stop solution (1M KOH, 19 mM Na-borate, 3.8 mM EDTA) to each well. Plates were kept on ice for 5-10 min and the wells were neutralized by addition of 200 ul of fresh ice cold neutralization solution (7.5% HCl). Plates were then frozen until further processing is desired. The lysate was then transferred into 1.5 mL Eppendorf tubes and 1 mL of chloroform/methanol (1:2) was added/tube. […]

[3] = target: 5HT2B receptor (Homo sapiens, UniProt P41595); experiment: Activity against the 5HT2B receptor (selectivity); type: cell-based
5HT2B receptor, sequence (P41595 whole entry): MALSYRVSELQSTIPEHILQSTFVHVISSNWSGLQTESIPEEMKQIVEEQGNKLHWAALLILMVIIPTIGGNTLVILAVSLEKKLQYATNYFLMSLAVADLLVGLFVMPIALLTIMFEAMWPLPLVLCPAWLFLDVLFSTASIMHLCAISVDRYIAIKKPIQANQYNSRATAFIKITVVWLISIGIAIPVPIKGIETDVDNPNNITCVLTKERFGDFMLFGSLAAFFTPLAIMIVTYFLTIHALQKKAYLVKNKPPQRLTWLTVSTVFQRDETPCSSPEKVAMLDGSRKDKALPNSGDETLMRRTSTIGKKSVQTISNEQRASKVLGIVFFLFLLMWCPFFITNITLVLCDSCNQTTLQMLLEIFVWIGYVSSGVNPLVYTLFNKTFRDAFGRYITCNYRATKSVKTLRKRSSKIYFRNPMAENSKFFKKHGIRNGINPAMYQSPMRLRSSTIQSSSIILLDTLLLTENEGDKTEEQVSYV

[4] = target: 5HT2A receptor (Homo sapiens, UniProt P28223); experiment: EC50 against the 5HT2A receptor (selectivity); type: cell-based
5HT2A receptor, sequence (P28223 whole entry): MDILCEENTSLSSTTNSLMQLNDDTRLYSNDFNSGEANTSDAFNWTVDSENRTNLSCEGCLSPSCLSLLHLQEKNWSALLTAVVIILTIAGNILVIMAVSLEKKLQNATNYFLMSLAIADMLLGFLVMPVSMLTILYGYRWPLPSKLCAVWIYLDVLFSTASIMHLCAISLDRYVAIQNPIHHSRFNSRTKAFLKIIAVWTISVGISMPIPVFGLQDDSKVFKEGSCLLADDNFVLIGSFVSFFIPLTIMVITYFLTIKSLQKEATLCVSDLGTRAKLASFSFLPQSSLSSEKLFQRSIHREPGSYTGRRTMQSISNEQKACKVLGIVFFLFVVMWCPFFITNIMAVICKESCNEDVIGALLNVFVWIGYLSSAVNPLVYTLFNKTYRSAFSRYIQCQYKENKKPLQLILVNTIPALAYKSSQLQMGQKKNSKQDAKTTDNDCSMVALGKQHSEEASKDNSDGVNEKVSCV

| SMILES | amyloid precursor protein (APPs) secretion [1] | levels of Aβ production in vivo [1] | EC50 [2] [nM] | activity against the 5HT2B receptor [3] | EC50 [4] [nM] |
| --- | --- | --- | --- | --- | --- |
| C[C@H](N)Cc1cccc(C(F)(F)F)c1 [dexnorfenfluramine] | stimulated | reducing levels |  |  |  |
| Fc1cc(-c2ccsc2)cc(N2CCNCC2)c1 [Compound 1, 1-(3-Fluoro-5-thiophen-3-yl-phenyl)-piperazine] |  |  | 7 | essentially inactive | > 10000 |
| Fc1ccc(-c2ccccc2)cc1N1CCNCC1 [Compound 10, 1-(4-Fluoro-biphenyl-3-yl)-piperazine] |  |  | 21 | essentially inactive |  |
